Key:
Chikungunya virus [1] = assay: Antiviral activity against Chikungunya virus Sri Lanka strain infected in African green monkey Vero E6 cells assessed as inhibition of virus-induced cytopathic effect incubated for 72 hrs by CellTiter Glo luminescence assay; format: functional, organism-based; settings: Vero C1008, 72 h
[2] = Cytotoxicity against African green monkey VeroE6 cells assessed as reduction in cell viability incubated for 72 hrs by CellTiter Glo luminescence analysis; format: toxicity, cell-based, Vero C1008; settings: chlorocebus sabaeus
Chikungunya virus [3] = assay: Antiviral activity against Chikungunya virus 181/25 infected in human NHDF cells assessed as reduction of virus titer treated with cells at 1 hr prior to infection and measured at 24 hrs post-infection by plaque assay; format: functional, organism-based; settings: 181/25, NHDF
[4] = Cytotoxicity against human NHDF cells assessed as reduction in cell viability incubated for 24 hrs by CellTiter Glo luminescence assay; format: toxicity, cell-based
Chikungunya virus [5] = assay: Antiviral activity against Chikungunya virus infected in human NHDF cells assessed as inhibition of viral production by NanoLuc reporter assay; format: functional, organism-based
Chikungunya virus [6] = assay: Antiviral activity against Chikungunya virus 181/25 infected in human NHDF cells assessed as log reduction of virus titer at 10 uM treated with cells at 1 hr prior to infection and measured at 24 hrs post-infection by plaque assay; format: functional; settings: time 25 hrs
[7] = Cytotoxicity against human NHDF cells deficient of IRF3 assessed as reduction in cell viability incubated for 72 hrs by CellTiter Glo luminescence assay; format: toxicity, cell-based
[8] = Kinetic solubility of the compound in simulated intestinal fluid at pH 7.5 by LC-MS analysis; format: physicochemical; settings: read-out: Kinetic_solubility
[9] = Octanol/PBS buffer distribution coefficient, logD of the compound at pH 7.5 by LC-MS analysis; format: physicochemical
[10] = Half life of the compound in mouse liver microsomes in presence of NADPH by LC-MS/MS analysis; format: ADME, Microsome
[11] = Half life of the compound in human liver microsomes in presence of NADPH by LC-MS/MS analysis; format: ADME, Microsome
Chikungunya virus [12] = assay: Antiviral activity against Chikungunya virus S27 infected in golden hamster BHK-21 cells assessed as inhibition of virus-induced cytopathic effect measured after 4 days by microscopic analysis; format: functional, organism-based; settings: S27, BHK-21, 96 h

Row | Compound | EC50 (Chikungunya virus [1]) [µM] | CC50 at 72 h [2] [µM] | EC50 (Chikungunya virus [3]) [µM] | EC90 (Chikungunya virus [3]; time 25 hrs) [µM] | CC50 at 24 h [4] [µM] | EC50 (Chikungunya virus [5]) [µM] | log(activity) (Chikungunya virus [6]) | CC50 at 72 h [7] [µM] | solubility kinetic [8] [µM] | logD [9] | half-life [10] [min] | half-life [11] [min] | EC50 (Chikungunya virus [12]) [µM]
1 | CSc1ncccc1C(=O)Nc1nc(-c2ccc3ccccc3c2)cs1 | 4.5 | 107 | 4.7 | 0.93 | 132 | 1.06 | 6.9 | > 40 | < 1 | 4.8 | 27 | 35 | –
2 | O=C(CCN1CCOCC1)c1c(CO)c2ccccc2[nH]c1=O | – | – | – | – | – | – | – | – | – | – | – | – | 2.2

Source: ChEMBL document CHEMBL6074675, “4-Substituted-2-Thiazole Amides as Viral Replication Inhibitors of Alphaviruses” (J Med Chem, 2024)
